According to patent publication US11845727B2, “Aldehyde and ketone derivatives of psilocybin and methods of using” (Enveric B[…] Inc., priority 2020, dated 2023):

Tests used:
[1] = tested on: CHO-K1/Gα15 (−5-HT1A) cells; experiment: cAMP-Glo assay with fixed forskolin in −5-HT1A control cells (CHO-K1/Gα15); format: cell-based; details: fixed (4 μM) forskolin
From the text: (§1) CHO-K1/Gα15 (GenScript, M00257) (−5-HT1A) and CHO-K1/5-HT1A/Gα15 (GenScript, M00330) (+5-HT1A) cells lines were used. Briefly, CHO-K1/Gα15 is a control cell line that constitutively expresses Gα15 which is a promiscuous Gq protein. This control cell line lacks any transgene encoding 5-HT1A receptors, but still responds to forskolin; thus, cAMP response to forskolin should be the same regardless of whether or not 5-HT1A agonists are present. Conversely, CHO-K1/5-HT1A/Gα15 cells stably express 5-HT1A receptor in the CHO-K1 host background. […] In +5-HT1A cells, Gα15 may be recruited in place of Gαi/o, which could theoretically dampen cAMP response (Rojas and Fiedler 2016, Front Cell Neurosci 10: 272). […] In contrast, tryptophan is not known to activate, or modulate in any way, 5-HT1A receptors, and was thus used as a negative control. Cells were maintained in complete growth media as recommended by supplier (GenScript) which is constituted as follows: Ham's F12 Nutrient mix (HAM's F12, GIBCO #11765-047) with 10% fetal bovine serum (FBS) (Thermo Scientific #12483020), 200 μg/ml zeocin (Thermo Scientific #R25005) and/or 100 μg/ml hygromycin (Thermo Scientific #10687010). The cells were cultured in a humidified incubator with 37° C. and 5% CO2. Cells maintenance was carried out as recommended by the cell supplier. Briefly, vials with cells were removed from the liquid nitrogen and thawed quickly in 37° C. water bath. Just before the cells were completely thawed the vial's outside was decontaminated by 70% ethanol spray. The cell suspension was then retrieved from the vial and added to warm (37° C.) complete growth media, and centrifuged at 1,000 rpm for 5 minutes. The supernatant was discarded, and the cell pellet was then resuspended in another 10 ml of complete growth media, and added to the 10 cm cell culture dish (Greiner Bio-One #664160). The media was changed every third day until the cells were about 90% confluent. The ˜90% confluent cells were then split 10:1 for maintenance or used for experiment.
As 5-HT1A activation inhibits cAMP formation, the ability of test molecules to modulate the 5-HT1A receptor response was measured via changes in the levels of cAMP produced due to application of 4 μM forskolin. The change in intracellular cAMP levels due to the treatment of novel molecules was measured using cAMP-Glo Assay kit (Promega # V1501). […] Reduced ATP caused reduced conversion of luciferin to oxyluciferin, conferring diminished luminescence as the result of 5-HT1A activation. Conversely, enhanced luminescence was expected in cases where 5-HT1A receptor modulation—imparted by a test molecule—caused downstream increases in ATP, thus imparting enhanced conversion of luciferin to oxyluciferin.

[2] = target: T1, 5-HT1A receptor (Homo sapiens, UniProt P08908); experiment: cAMP-Glo assay with fixed forskolin in +5-HT1A cells (CHO-K1/5-HT1A/Gα15); format: cell-based; details: fixed (4 μM) forskolin; for 5-HT1A receptor modulation (conclusion from cAMP/luminescence trend) / % cAMP levels as dosages of compound decrease: +5HT1A cell cultures; for luminescence as dosages of ligand decrease: +5HT1A cell culture, reduced luminescence = increased cAMP
T1 construct: host or cells: CHO-K1 (co-expressing Gα15)
T1 sequence (P08908 1-422): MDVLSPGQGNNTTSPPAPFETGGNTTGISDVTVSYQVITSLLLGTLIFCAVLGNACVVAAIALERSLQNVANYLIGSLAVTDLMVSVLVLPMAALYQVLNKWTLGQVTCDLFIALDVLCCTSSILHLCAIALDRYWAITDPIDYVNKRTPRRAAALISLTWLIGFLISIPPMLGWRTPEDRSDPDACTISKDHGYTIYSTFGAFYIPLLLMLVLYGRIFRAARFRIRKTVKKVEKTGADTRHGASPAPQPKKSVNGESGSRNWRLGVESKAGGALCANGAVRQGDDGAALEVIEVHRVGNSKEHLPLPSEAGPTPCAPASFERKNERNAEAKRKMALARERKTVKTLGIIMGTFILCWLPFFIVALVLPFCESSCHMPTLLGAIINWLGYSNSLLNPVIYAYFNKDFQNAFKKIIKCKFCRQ
From the text: as §1
As 5-HT1A activation inhibits cAMP formation, the ability of test molecules to modulate the 5-HT1A receptor response was measured via changes in the levels of cAMP produced due to application of 4 μM forskolin. The change in intracellular cAMP levels due to the treatment of novel molecules was measured using cAMP-Glo Assay kit (Promega # V1501). Briefly, +5-HT1A cells were seeded on 1-6 columns and base −5-HT1A cells were seeded on columns 7-12 of the white walled clear bottom 96-well plate (Corning, #3903). Both cells were seeded at the density of 30,000 cells/well in 100 μl complete growth media and cultured 24 hrs in humidified incubator at 37° C. and 5% CO2. On the experiment day, the media of cells was replaced with serum/antibiotic free culture media. Then the cells were treated for 20 minutes with test molecules dissolved in induction medium (serum/antibiotic free culture media containing 4 μM forskolin, 500 μM IBMX (isobutyl-1-methylxanthine, Sigma-Aldrich, Cat. #17018) and 100 μM (RO 20-1724, Sigma-Aldrich, Cat. #68279)). Forskolin induced cAMP formation whereas IBMX and RO 20-1724 inhibited the degradation of cAMP. PKA was added to the lysate, mixed, and subsequently the substrate of the PKA was added. PKA was activated by cAMP, and the amount of ATP consumed due to PKA phosphorylation directly corresponded to cAMP levels in the lysate. Reduced ATP caused reduced conversion of luciferin to oxyluciferin, conferring diminished luminescence as the result of 5-HT1A activation. Conversely, enhanced luminescence was expected in cases where 5-HT1A receptor modulation—imparted by a test molecule—caused downstream increases in ATP, thus imparting enhanced conversion of luciferin to oxyluciferin.

[3] = target: T2, 5-HT2A receptor (Homo sapiens, UniProt P28223); experiment: [3H]ketanserin competition binding assay (SPA) at the 5-HT2A receptor; details: fixed (1 nM) [3H]ketanserin, membranes containing 5-HT2A
T2 construct: purchased PerkinElmer ES-313-M400UA
T2 sequence (P28223 whole entry): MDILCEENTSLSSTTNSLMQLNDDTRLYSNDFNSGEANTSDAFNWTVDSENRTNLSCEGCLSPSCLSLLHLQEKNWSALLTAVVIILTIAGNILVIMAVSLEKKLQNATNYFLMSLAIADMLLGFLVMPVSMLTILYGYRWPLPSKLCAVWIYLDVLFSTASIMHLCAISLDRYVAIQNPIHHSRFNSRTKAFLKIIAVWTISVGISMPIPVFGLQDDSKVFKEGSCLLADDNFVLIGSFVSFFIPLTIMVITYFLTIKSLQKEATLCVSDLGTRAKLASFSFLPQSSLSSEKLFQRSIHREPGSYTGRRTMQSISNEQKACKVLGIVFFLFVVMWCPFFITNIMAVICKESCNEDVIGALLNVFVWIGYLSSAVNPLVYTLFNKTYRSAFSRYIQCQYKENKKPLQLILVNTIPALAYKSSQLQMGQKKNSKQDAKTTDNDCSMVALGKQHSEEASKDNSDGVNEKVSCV
From the text: Evaluation of drug binding is an essential step to characterization of all drug-target interactions (Fang 2012, Exp Opin Drug Discov 7:969). The binding affinity of a drug to a target is traditionally viewed as an acceptable surrogate of its in vivo efficacy (Núñez et al., 2012, Drug Disc Today 17: 10). Competition assays, also called displacement or modulation binding assays, are a common approach to measure activity of a ligand at a target receptor (Flanagan 2016, Methods Cell Biol 132: 191). In these assays, standard radioligands acting either as agonists or antagonists are ascribed to specific receptors. […] After incubation, the samples were read on a MicroBeta 2 Microplate Counter (Perkin Elmer). […] Equilibrium binding constants for ketanserin (Kd) were determined from saturation binding curves using the ‘one-site saturation binding analysis’ method of GraphPad PRISM software (Version 9.2.0). […] Ki values were calculated from the competition displacement data using the competitive binding analysis from GraphPad PRISM software. […] Specific binding in counts per minute (cpm) was calculated by subtracting non-specific binding from total binding. Specific binding (pmol/mg) was calculated from pmol of [^3H]ketanserin bound per mg of protein in the assay. The Kd was calculated by fitting the data with the one-site binding model of PRISM software (version 9.2.0).

Compound | trend of % cAMP levels with decreasing compound in −5HT1A cell cultures [1] | 5-HT1A receptor modulation (conclusion from cAMP/luminescence trend) [2] | % cAMP levels as dosages of compound decrease [2] | luminescence as dosages of ligand decrease [2] | competition binding curve at the 5-HT2A receptor [3]
COc1ccc(C=O)c2[nH]cc(CCN)c12 [compound (X), 4-O-methyl-7-formyl psilocybin derivative] | not observed | modulate 5-HT1A response | decreased % cAMP levels | – | –
CCN(CC)CCc1c[nH]c2c(C=O)ccc(O)c12 [compound (VIII), N,N-diethyl-7-formyl psilocybin derivative] | not observed | 5-HT1A modulation activity | increased % cAMP levels | – | –
CN(C)CCc1c[nH]c2ccccc12 [DMT] | – | 5-HT1A activity | – | reduced luminescence | –
CCCCN(CCCC)CCc1c(C=O)[nH]c2cccc(OC)c12 [compound (XII)] | not observed | 5-HT1A modulation activity | decreased % cAMP levels | – | –
N[C@@H](Cc1c[nH]c2ccccc12)C(=O)O [tryptophan] | – | lack of 5-HT1A modulation | – | no trend in luminescence | no binding
CN(C)CCc1c[nH]c2cccc(O)c12 [psilocin] | – | – | – | – | binding
NCCc1c[nH]c2ccc(O)cc12 [serotonin] | not observed | 5-HT1A binding activity | increased % cAMP levels | – | –
